Measurements from ChEMBL document CHEMBL5325442, “Diterpenoids and Their Glycosides from the Stems of Tinospora crispa with Beta-Cell Protective Activity” (2023).
The source made the active and inactive calls. The rule behind the calls is not given here.

Assays:
Format in all cases: functional
BRIN-BD11 [1] = experiment: Protection against dexamethasone-induced cytotoxicity in rat BRIN-BD11 cells assessed as increase in cell viability at 50 uM incubated for 48 hrs by WST-1 reagent based assay
BRIN-BD11 [2] = experiment: Protection against dexamethasone-induced cell cycle arrest in rat BRIN-BD11 cells assessed as restoration of dexamethasone-induced increase in G1 phase cells at 50 uM incubated for 48 hrs by RNase A staining based FACS analysis
BRIN-BD11 [3] = experiment: Protection against dexamethasone-induced cell cycle arrest in rat BRIN-BD11 cells assessed as restoration of dexamethasone-induced decrease in S phase cells at 50 uM incubated for 48 hrs by RNase A staining based FACS analysis
BRIN-BD11 [4] = experiment: Protection against dexamethasone-induced cell cycle arrest in rat BRIN-BD11 cells assessed as restoration of dexamethasone-induced decrease in G2/M phase cells at 50 uM incubated for 48 hrs by RNase A staining based FACS analysis
BRIN-BD11 [5] = experiment: Protection against dexamethasone-induced cytotoxicity in rat BRIN-BD11 cells assessed as increase in cell viability incubated for 48 hrs by WST-1 reagent based assay; details: dose <= 50.0 µM
BRIN-BD11 [6] = experiment: Protection against dexamethasone-induced cytotoxicity in rat BRIN-BD11 cells assessed as increase in cell viability at 400 uM incubated for 48 hrs by WST-1 reagent based assay

With `COC(=O)C1=CCC[C@@H]2[C@](C)(CC(O[C@@H]3O[C@H](CO[C@@H]4O[C@H](CO)[C@@H](O)[C@H](O)[C@H]4O)[C@@H](O)[C@H](O)[C@H]3O)C3=CC(OC)OC3=O)[C@H]3C[C@H](OC3=O)[C@]12C` (some centres not stated) the Activity (BRIN-BD11 [1]) was “Active”, the Activity (BRIN-BD11 [2]) was “inactive” and the Activity (BRIN-BD11 [3]) was “inactive”. For the same molecule, the Activity (BRIN-BD11 [4]) was “inactive”.

With `COC(=O)C1=CCC[C@H]2[C@]3(C)C[C@@H](C4=C[C@H](OC)OC4=O)OC(=O)[C@@H]3CC(O[C@@H]3O[C@H](CO)[C@@H](O)[C@H](O)[C@H]3O)[C@@]12C` (some centres not stated) the Activity (BRIN-BD11 [5]) was “Active”.

`COC(=O)C1=C[C@H](O)C[C@H]2[C@]3(C)C[C@@H](c4ccoc4)OC(=O)[C@H]3C[C@H](O[C@@H]3O[C@H](CO)[C@@H](O)[C@H](O)[C@H]3O)[C@@]12C` was tested, and the Activity (BRIN-BD11 [5]) was “Active”.

`COC(=O)C1=C[C@H](O)C[C@H]2[C@](C)(C[C@H](O[C@@H]3O[C@H](CO)[C@@H](O)[C@H](O)[C@H]3O)c3ccoc3)[C@H]3C[C@H](OC3=O)[C@@]12C` was tested, and the Activity (BRIN-BD11 [5]) was “Dose-Dependent Effect”, the Activity (BRIN-BD11 [1]) was “Active” and the Activity (BRIN-BD11 [2]) was “inactive”. The Activity (BRIN-BD11 [3]) was “inactive” and the Activity (BRIN-BD11 [4]) was “inactive”.

`COC(=O)C1=CCC[C@H]2[C@]3(C)C[C@@H](c4ccoc4)OC(=O)C3=CC(O[C@@H]3O[C@H](CO)[C@@H](O)[C@H](O)[C@H]3O)[C@@]12C` (some centres not stated) was tested, and the Activity (BRIN-BD11 [5]) was “Active”.

With `C[C@@]1(CC(=O)O)[C@@H](C(=O)O)C[C@H]2OC(=O)C3=CCC[C@@H]1[C@]32C` the Activity (BRIN-BD11 [1]) was “inactive”.

With `COC(=O)C1=CCC[C@H]2[C@]3(C)C[C@@H](c4ccoc4)OC(=O)[C@@H]3C[C@H](O[C@@H]3O[C@H](CO)[C@@H](O)[C@H](O)[C@H]3O)[C@@]12C` the Activity (BRIN-BD11 [5]) was “Dose-Dependent Effect”, the Activity (BRIN-BD11 [2]) was “inactive” and the Activity (BRIN-BD11 [3]) was “inactive”. The Activity (BRIN-BD11 [4]) was “inactive”.

With `COC(=O)C1=CCC[C@@H]2[C@](C)(CC(O[C@@H]3O[C@H](CO)[C@@H](O)[C@H](O)[C@H]3O)C3=CC(O)OC3=O)[C@H]3C[C@H](OC3=O)[C@]12C` (some centres not stated) the Activity (BRIN-BD11 [5]) was “Active”.

For `COC(=O)C1=CCC[C@H]2[C@]3(C)C[C@@H](C4=CC(=O)OC4O)OC(=O)[C@@H]3C[C@@H](O[C@@H]3O[C@H](CO)[C@@H](O)[C@H](O)[C@H]3O)[C@@]12C` (some centres not stated), the Activity (BRIN-BD11 [1]) was “Active”, the Activity (BRIN-BD11 [2]) was “inactive” and the Activity (BRIN-BD11 [3]) was “inactive”. For the same molecule, the Activity (BRIN-BD11 [4]) was “inactive”.

For `COC(=O)C1=C[C@H](O)C[C@@H]2[C@@]1(C)[C@@H](O[C@@H]1O[C@H](CO)[C@@H](O)[C@H](O)[C@H]1O)C=C1C(=O)O[C@H](c3ccoc3)C[C@]12C`, the Activity (BRIN-BD11 [5]) was “Dose-Dependent Effect”, the Activity (BRIN-BD11 [1]) was “Active” and the Activity (BRIN-BD11 [2]) was “inactive”. The Activity (BRIN-BD11 [3]) was “inactive” and the Activity (BRIN-BD11 [4]) was “inactive”.

In the case of `COC(=O)C1=CCC[C@H]2[C@](C)(C[C@H](O[C@@H]3O[C@H](CO)[C@@H](O)[C@H](O)[C@H]3O)[C@@]3(O)[C@H](OC)O[C@H](OC)[C@H]3O)[C@H]3C[C@H](OC3=O)[C@@]12C`, the Activity (BRIN-BD11 [1]) is reported as “inactive”.

In the case of `COC(=O)C1=CCC[C@H]2[C@](C)(C[C@@H](O[C@@H]3O[C@H](CO[C@@H]4O[C@H](CO)[C@@H](O)[C@H](O)[C@H]4O)[C@@H](O)[C@H](O)[C@H]3O)c3ccoc3)[C@H]3C[C@H](OC3=O)[C@@]12C`, the Activity (BRIN-BD11 [1]) is reported as “Active”, the Activity (BRIN-BD11 [2]) is reported as “inactive” and the Activity (BRIN-BD11 [3]) is reported as “inactive”. For the same molecule, the Activity (BRIN-BD11 [4]) was “inactive”.

For `COC(=O)C1=CCC[C@H]2[C@](C)(CC(O[C@@H]3O[C@H](CO)[C@@H](O)[C@H](O)[C@H]3O)c3ccoc3)[C@H]3C[C@H](OC3=O)[C@@]12C` (some centres not stated), the Activity (BRIN-BD11 [5]) was “Dose-Dependent Effect”, the Activity (BRIN-BD11 [1]) was “Active” and the Activity (BRIN-BD11 [2]) was “inactive”. For the same molecule, the Activity (BRIN-BD11 [3]) was “inactive” and the Activity (BRIN-BD11 [4]) was “inactive”.

`C[C@]12C[C@@H](c3ccoc3)OC(=O)[C@H]1CC[C@]1(C)[C@H]2[C@H]2C=C[C@]1(O[C@@H]1O[C@H](CO)[C@@H](O)[C@H](O)[C@H]1O)C(=O)O2` was tested, and the Activity (BRIN-BD11 [5]) was “Dose-Dependent Effect”, the Activity (BRIN-BD11 [1]) was “Active” and the Activity (BRIN-BD11 [2]) was “inactive”. The Activity (BRIN-BD11 [3]) was “inactive” and the Activity (BRIN-BD11 [4]) was “inactive”.

With `C[C@@]12C[C@@H](c3ccoc3)OC(=O)[C@@H]1C[C@@H]1OC(=O)[C@@]3(O)[C@@H](O[C@@H]4O[C@H](CO)[C@@H](O)[C@H](O)[C@H]4O)CC[C@@H]2[C@@]13C` the Activity (BRIN-BD11 [5]) was “Active”.

For `CCCCNC(=O)NS(=O)(=O)c1ccc(C)cc1`, the Activity (BRIN-BD11 [6]) was “Active”.

For `COC(=O)C1=CCC[C@H]2[C@]3(C)C[C@@H](C4=CC(O)OC4=O)OC(=O)[C@@H]3C[C@@H](O[C@@H]3O[C@H](CO)[C@@H](O)[C@H](O)[C@H]3O)[C@@]12C` (some centres not stated), the Activity (BRIN-BD11 [1]) was “Active”.

`C[C@@]12C[C@@H](c3ccoc3)OC(=O)[C@@H]1C[C@@H](O[C@@H]1O[C@H](CO)[C@@H](O)[C@H](O)[C@H]1O)[C@@]13COC(=O)C1=CCC[C@@H]23` was tested, and the Activity (BRIN-BD11 [5]) was “Active”.

With `COC(=O)C1=C[C@H](O)C[C@H]2[C@]3(C)C[C@@H](c4ccoc4)OC(=O)[C@@H]3C[C@@H](O[C@@H]3O[C@H](CO)[C@@H](O)[C@H](O)[C@H]3O)[C@@]12C` the Activity (BRIN-BD11 [5]) was “Active”.
